Our source for the IC50 and inhibition in vivo values is patent US20190169181A1, “FUMAGILLOL COMPOUNDS AND METHODS OF MAKING AND USING SAME” (Zafgen, Inc., priority 2016, published 2019).

By IC50 is commonly meant the point on the concentration scale where inhibition reaches its midpoint. As usually defined, the inhibition in vivo is the change of the read-out against control, counted positive when it falls.

Counter-ions that a name gives are not always drawn.

For one assay, the target named is T1, recombinant human MetAP2 (Homo sapiens, UniProt P50579).
T1 construct: Flag; made in house
T1 sequence (P50579 whole entry): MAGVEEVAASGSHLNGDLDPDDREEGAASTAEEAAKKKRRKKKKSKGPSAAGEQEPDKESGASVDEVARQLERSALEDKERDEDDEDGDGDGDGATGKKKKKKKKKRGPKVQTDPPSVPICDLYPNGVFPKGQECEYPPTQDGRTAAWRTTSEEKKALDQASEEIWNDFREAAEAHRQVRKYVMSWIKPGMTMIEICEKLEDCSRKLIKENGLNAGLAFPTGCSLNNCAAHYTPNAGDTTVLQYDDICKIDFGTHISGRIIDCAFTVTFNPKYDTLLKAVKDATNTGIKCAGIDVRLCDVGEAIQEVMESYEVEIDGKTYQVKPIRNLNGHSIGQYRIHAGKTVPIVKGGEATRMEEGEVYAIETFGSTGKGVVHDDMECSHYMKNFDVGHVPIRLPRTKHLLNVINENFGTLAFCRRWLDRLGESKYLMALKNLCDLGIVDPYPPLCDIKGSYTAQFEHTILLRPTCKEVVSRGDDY
In words: Recombinant human MetAP2 enzyme inhibition assay (MAS peptide / amino acid oxidase / Amplex Ultrared readout). To be noted: Flag tagged human recombinant MetAP2, 25 minutes at 25° C. Type of assay: biochemical. As to the method:
Compounds are tested for their capacity to inhibit recombinant human MetAP2 activity using the following assay.
Flag tagged Human recombinant MetAP2 expressed and isolated for use as the enzyme source. 10 mM stock solutions of compounds were prepared in 100% DMSO and further diluted in 100% DMSO required concentration to 1 mM stocks. The stock compound solutions and DMSO vehicle controls were diluted to target final compound concentrations using assay buffer to a final concentration of 50 mM HEPES containing 100 mM NaCl, pH adjusted to 7.5. The MAS peptide was formulated to a 7.5 mM stock in distilled water and prior to use further diluted 1:4. […] 40 μl of enzyme was mixed with 100 μl of MnCl2 then further diluted in assay buffer to a final concentration of 16 μg/ml. To test for compound effect on MetAP2 enzyme activity, 5 μl of test compound, 10 μl of MAS substrate/amino acid oxidase mixture, 10 μl of MetAP2 was added to test wells in a 384 well black plate with blank wells containing no enzyme, replaced with 10 μl of assay buffer. All compounds were tested in duplicate on two occasions on the same day.
The plate was sealed with a TopSeal A cover and mixed briefly on an orbital mixer at 900 rpm. The plate was incubated for a further 25 minutes at 25° C. A 5× stock of Amplex buffer was prepared (0.25 M sodium phosphate, pH 7.4) and stored at 4° C. […] Horse radish peroxidase was diluted in […] of Amplex buffer, 100 μl of this was combined with 50 μl of Amplex Ultrared in […] of 1× Amplex buffer to generate sufficient detection reagent for a 384 well plate. 25 μl detection reagent was added to each well of the test plate, which was re-sealed and mixed briefly on an orbital shaker. The plate was transferred to an Envision Multi-label reader and RFU measured corresponding to excitation 531 nm and emission 595 nm. At the end of the MetAP2 incubation 25 μl Amplex/HRP mixture per well was added and the plate read plate on a plate reader.

In assay [1] the test system is Diet Induced Obese (DIO) C57BL/6 mice. In words: 10 day DIO mouse model, weight loss vs. vehicle. The note with it: 240 h; for inhibition in vivo at 0.3 mg/kg: 0.3 mpk sc once a day for 10 days; for inhibition in vivo at 1 mg/kg: 1.0 mpk sc once a day for 10 days. It is filed as in vivo. The source says: The objective of this study design was to investigate the efficacy of disclosed compounds in a 10 day DIO mouse model. Effects on body weight, food intake, hematology and blood chemistry were the primary readouts of this study design. Male, Diet Induced Obese (DIO) C57BL/6 mice, 19-21 weeks of age (13-15 weeks on high fat diet) were ordered from a certified vendor and upon receipt were housed on irradiated corncob bedding in micro-isolator cages on a 12-hour light-dark cycle (0700-1900) at 68-74° F. and 30-70% humidity. Mice were fed Research Diets D12492 (60% Kcal fat, 20% Kcal carbohydrate and 20% protein) and provided water ad libitum. DIO mice were received and housed in the facility for approximately two weeks prior to the start of test article administration. On Day −4 or −3, mice were randomized into study groups based on body weight and body weights were continued to be recorded daily for the duration of the study. Daily food intake was assessed starting on Study Day −2 by weighing of the food with hopper together to avoid loss of food in transfer.
Compounds were formulated into a 100% DMSO stock (at 9 mg/mL) prior to the start, and further diluted into the target working concentration using the vehicle of 10% DMSO in water. Prior to test article administration, starting on Day −3 a dosing acclimation occurred with all animals receiving a subcutaneous injection of vehicle (10% DMSO) only for 3 days. Starting on Day 1, test compounds or vehicle were administered based on individual body weight, subcutaneously, once a day for 10 days. All mice were sacrificed on Day 11, 24 hours following the final dosing on Day 10. After sacrifice, whole blood was collected and analyzed for hematology and blood chemistry parameters.
Compounds were tested for weight loss vs. vehicle at 0.3 and 1.0 mpk sc (mg per kg animal weight delivered subcutaneously), and the results are shown in Table 2 below.

With `CO[C@@H]1[C@H](OC(=O)N[C@H](c2cn(CC(C)C)cn2)C(C)C)CC[C@]2(CO2)[C@H]1[C@@]1(C)O[C@@H]1CC=C(C)C` [Example 42, (3R,4S,5S,6R)-5-methoxy-4-((2R,3R)-2-methyl-3-(3-methylbut-2-en-1-yl)oxiran-2-yl)-1-oxaspiro[2.5]octan-6-yl ((S)-1-(1-isobutyl-1H-imidazol-4-yl)-2-methylpropyl)carbamate], at recombinant human MetAP2, the IC50 was below 50 nM. Besides, the inhibition in vivo at 0.3 mg/kg in assay [1] was 10%.

For `CO[C@@H]1[C@H](OC(=O)N[C@H](c2ncc[nH]2)C(C)C)CC[C@]2(CO2)[C@H]1[C@@]1(C)O[C@@H]1CC=C(C)C` [Example 4, (3R,4S,5S,6R)-5-methoxy-4-((2R,3R)-2-methyl-3-(3-methylbut-2-enyl)oxiran-2-yl)-1-oxaspiro[2.5]octan-6-yl (S)-1-(1H-imidazol-2-yl)-2-methylpropylcarbamate], the IC50 at recombinant human MetAP2 is below 50 nM. In assay [1], the inhibition in vivo at 0.3 mg/kg is 3.9% and the inhibition in vivo at 1 mg/kg was 0.7%.

As to `CNc1nnc([C@@H](NC(=O)O[C@@H]2CC[C@]3(CO3)[C@@H]([C@@]3(C)O[C@@H]3CC=C(C)C)[C@@H]2OC)C(C)C)s1` [Example 8, (3R,4S,5S,6R)-5-methoxy-4-((2R,3R)-2-methyl-3-(3-methylbut-2-enyl)oxiran-2-yl)-1-oxaspiro[2.5]octan-6-yl (S)-2-methyl-1-(5-(methylamino)-1,3,4-thiadiazol-2-yl)propylcarbamate], the concentration for half-maximal inhibition (IC50) at recombinant human MetAP2 lay within 50 to 500 nM. In addition, the inhibition in vivo at 0.3 mg/kg in assay [1] amounted to 2%.

For `CO[C@@H]1[C@H](OC(=O)N[C@H](c2ccc(N3CC(F)(F)C3)nc2)C(C)C)CC[C@]2(CO2)[C@H]1[C@@]1(C)O[C@@H]1CC=C(C)C` [Example 25, (3R,4S,5S,6R)-5-methoxy-4-((2R,3R)-2-methyl-3-(3-methylbut-2-enyl)oxiran-2-yl)-1-oxaspiro[2.5]octan-6-yl (S)-1-(6-(3,3-difluoroazetidin-1-yl)pyridin-3-yl)-2-methylpropylcarbamate], the IC50 on recombinant human MetAP2 lay in the range of 50 to 500 nM. Further, the inhibition in vivo at 0.3 mg/kg in assay [1] turned out to be 13%.

In the case of `CO[C@@H]1[C@H](OC(=O)N[C@H](c2cnn(C[C@H]3CCN(C)C3)c2)C(C)C)CC[C@]2(CO2)[C@H]1[C@@]1(C)O[C@@H]1CC=C(C)C` [Example 22, (3R,4S,5S,6R)-5-methoxy-4-((2R,3R)-2-methyl-3-(3-methylbut-2-enyl)oxiran-2-yl)-1-oxaspiro[2.5]octan-6-yl (S)-2-methyl-1-(1-(((S)-1-methylpyrrolidin-3-yl)methyl)-1H-pyrazol-4-yl)propylcarbamate formate], the half-maximal inhibitory concentration (IC50) on recombinant human MetAP2 was in the range of 50 to 500 nM. Besides, the inhibition in vivo at 0.3 mg/kg in assay [1] was found to be 4.7%.

On to `CO[C@@H]1[C@H](OC(=O)N[C@H](c2cnn(C[C@@H]3CCN(C)C3)c2)C(C)C)CC[C@]2(CO2)[C@H]1[C@@]1(C)O[C@@H]1CC=C(C)C` [Example 23, (3R,4S,5S,6R)-5-methoxy-4-((2R,3R)-2-methyl-3-(3-methylbut-2-enyl)oxiran-2-yl)-1-oxaspiro[2.5]octan-6-yl (S)-2-methyl-1-(1-(((R)-1-methylpyrrolidin-3-yl)methyl)-1H-pyrazol-4-yl)propylcarbamate], for which the concentration for half-maximal inhibition (IC50) on recombinant human MetAP2 is 50 to 500 nM. Moreover, the inhibition in vivo at 0.3 mg/kg in assay [1] turned out to be 5.1%.

Regarding `CO[C@@H]1[C@H](OC(=O)N[C@@H](Cc2nnc(N)s2)C(C)C)CC[C@]2(CO2)[C@H]1[C@@]1(C)O[C@@H]1CC=C(C)C` [Example 37, (3R,4S,5S,6R)-5-methoxy-4-((2R,3R)-2-methyl-3-(3-methylbut-2-enyl)oxiran-2-yl)-1-oxaspiro[2.5]octan-6-yl (S)-1-(5-amino-1,3,4-thiadiazol-2-yl)-3-methylbutan-2-ylcarbamate], the IC50 on recombinant human MetAP2 was 50 to 500 nM. Besides, the inhibition in vivo at 0.3 mg/kg in assay [1] was 2.5%.

As to `CO[C@@H]1[C@H](OC(=O)N[C@@H](c2noc(=O)[nH]2)C(C)C)CC[C@]2(CO2)[C@H]1[C@@]1(C)O[C@@H]1CC=C(C)C` [Example 11, (3R,4S,5S,6R)-5-methoxy-4-((2R,3R)-2-methyl-3-(3-methylbut-2-enyl)oxiran-2-yl)-1-oxaspiro[2.5]octan-6-yl (R)-2-methyl-1-(5-oxo-4,5-dihydro-1,2,4-oxadiazol-3-yl)propylcarbamate], the IC50 at recombinant human MetAP2 was in the range of 50 to 500 nM. Moreover, in assay [1], the inhibition in vivo at 0.3 mg/kg is -1.3% and the inhibition in vivo at 1 mg/kg was determined as 6.6%.

Consider `CO[C@@H]1[C@H](OC(=O)N[C@H](c2cc(=O)cc[nH]2)C(C)C)CC[C@]2(CO2)[C@H]1[C@@]1(C)O[C@@H]1CC=C(C)C` [Example 20, (3R,4S,5S,6R)-5-methoxy-4-((2R,3R)-2-methyl-3-(3-methylbut-2-enyl)oxiran-2-yl)-1-oxaspiro[2.5]octan-6-yl (S)-2-methyl-1-(4-oxo-1,4-dihydropyridin-2-yl)propylcarbamate], for which the IC50 on recombinant human MetAP2 is below 50 nM. In addition, in assay [1], the inhibition in vivo at 0.3 mg/kg turned out to be 3.4% and the inhibition in vivo at 1 mg/kg amounted to 3.3%.

Regarding `CC[C@@H](Cc1noc(=O)[nH]1)NC(=O)O[C@@H]1CC[C@]2(CO2)[C@@H]([C@@]2(C)O[C@@H]2CC=C(C)C)[C@@H]1OC` [Example 29, (3R,4S,5S,6R)-5-methoxy-4-((2R,3R)-2-methyl-3-(3-methylbut-2-enyl)oxiran-2-yl)-1-oxaspiro[2.5]octan-6-yl (S)-1-(5-oxo-4,5-dihydro-1,2,4-oxadiazol-3-yl)butan-2-ylcarbamate], the IC50 on recombinant human MetAP2 is below 50 nM. In addition, the inhibition in vivo at 1 mg/kg in assay [1] came to 3.6%.

`CO[C@@H]1[C@H](OC(=O)N[C@H](c2cn(CCN3CCOCC3)cn2)C(C)C)CC[C@]2(CO2)[C@H]1[C@@]1(C)O[C@@H]1CC=C(C)C` [Example 17, (3R,4S,5S,6R)-5-methoxy-4-((2R,3R)-2-methyl-3-(3-methylbut-2-enyl)oxiran-2-yl)-1-oxaspiro[2.5]octan-6-yl (S)-2-methyl-1-(1-(2-morpholinoethyl)-1H-imidazol-4-yl)propylcarbamate]: the IC50 on recombinant human MetAP2 fell in the range of 50 to 500 nM. Moreover, the inhibition in vivo at 0.3 mg/kg in assay [1] came to 3.2%.

With `CO[C@@H]1[C@H](OC(=O)N[C@H](c2cn(C[C@@H]3CCN(CC(F)F)C3)cn2)C(C)C)CC[C@]2(CO2)[C@H]1[C@@]1(C)O[C@@H]1CC=C(C)C` [Example 19, (3R,4S,5S,6R)-5-methoxy-4-((2R,3R)-2-methyl-3-(3-methylbut-2-enyl)oxiran-2-yl)-1-oxaspiro[2.5]octan-6-yl (S)-1-(1-(((R)-1-(2,2-difluoroethyl)pyrrolidin-3-yl)methyl)-1H-imidazol-4-yl)-2-methylpropylcarbamate], the IC50 at recombinant human MetAP2 was 50 to 500 nM. Moreover, the inhibition in vivo at 0.3 mg/kg in assay [1] was 1.9%.

With `CO[C@@H]1[C@H](OC(=O)N[C@H](c2ccc(N3CCOCC3)nc2)C(C)C)CC[C@]2(CO2)[C@H]1[C@@]1(C)O[C@@H]1CC=C(C)C` [Example 26, (3R,4S,5S,6R)-5-methoxy-4-((2R,3R)-2-methyl-3-(3-methylbut-2-enyl)oxiran-2-yl)-1-oxaspiro[2.5]octan-6-yl (S)-2-methyl-1-(6-morpholinopyridin-3-yl)propylcarbamate], the IC50 at recombinant human MetAP2 was 50 to 500 nM. In assay [1], the inhibition in vivo at 0.3 mg/kg turned out to be 7.2%.
